From patent publication EP1976513B1 (priority 2006, dated 2007)
Where two headings read alike, the source gives them in different places.

How the values were obtained:
mice [1] = assay: Mouse tail suspension test; format: in vivo; conditions: PO, 30-60 minutes before the test, 5 minutes recording
mice [2] = assay: Mouse locomotor activity; format: in vivo; conditions: PO; further: unit not given here
Description: (§1) In order to ensure effects of the compounds on immobility time were not related to a general stimulant effect on baseline motor activity, locomotor activity was assessed using photocell monitored cages (Med-Associates Inc.). Each test chamber was equipped with infrared photocell beams to measure movement of the animals. Horizontal and vertical activity were measured
(§2) Rats or mice were pretreated with vehicle or test compounds and placed back in home cage, following which they will be individually placed in locomotor cages and activity was monitored in 5 minute intervals for up to 60 min.
(§3) Data were analyzed by one way analysis of variance (ANOVA) followed by post-hoc comparisons where appropriate. An effect was considered significant if p < 0.05. Data are represented as the mean and standard error to the mean (s.e.m).

Rats [3] = assay: Rat forced swim test; format: in vivo; conditions: PO, 24 hours and 30-60 minutes before the 5 minute test
Rats [4] = assay: Rat locomotor activity; format: in vivo; conditions: PO
Description: as §1, §2, §3

[5] = target: human serotonin reuptake transporter (Homo sapiens, UniProt P31645); assay: cell-based; conditions: recombinant human serotonin transporter (SERT); read-out: Human IC50 (nM) hSERT
[6] = target: T1, 5-HT Transporter (SERT) Sites in Mouse Brain (Mus musculus, UniProt Q60857); assay: Ex vivo [3H] citalopram binding after oral dosing; parameters: species or system C57BL/6 mice; conditions: for % Transporter Occupancy, SERT: 60 minutes after treatment, vs vehicle; for Mean Specific Binding (dpm) ± S.E.M., SERT: mice sacrificed 60 minutes after treatment, cortex
T1 construct: Whole brains were removed and cortex and striata dissected out; from tissue; host or cells: C57BL/6 mouse frontal cortex homogenate

[7] = target: T2, DA Transporter (DAT) Sites in Mouse Brain (Mus musculus, UniProt Q61327); assay: Ex vivo [3H] WIN 35428 binding after oral dosing; parameters: species or system C57BL/6 mice; conditions: for % Transporter Occupancy, DAT: 60 minutes after treatment, vs vehicle; for Mean Specific Binding (dpm) ± S.E.M., DAT: mice sacrificed 60 minutes after treatment, striatum
T2 construct: Striatum was used to determine occupancy of DA transporter sites; from tissue; host or cells: C57BL/6 mouse striatum homogenate

[8] = target: Norepinephrine Transporter (NET) Sites in Mouse Brain (Mus musculus, UniProt O55192); conditions: PO; for % Transporter Occupancy, NET: 60 minutes after treatment, vs vehicle; for Mean Specific Binding (dpm) ± S.E.M., NET: mice sacrificed 60 minutes after treatment, cortex
Norepinephrine Transporter (NET) Sites in Mouse Brain, sequence (O55192 whole entry): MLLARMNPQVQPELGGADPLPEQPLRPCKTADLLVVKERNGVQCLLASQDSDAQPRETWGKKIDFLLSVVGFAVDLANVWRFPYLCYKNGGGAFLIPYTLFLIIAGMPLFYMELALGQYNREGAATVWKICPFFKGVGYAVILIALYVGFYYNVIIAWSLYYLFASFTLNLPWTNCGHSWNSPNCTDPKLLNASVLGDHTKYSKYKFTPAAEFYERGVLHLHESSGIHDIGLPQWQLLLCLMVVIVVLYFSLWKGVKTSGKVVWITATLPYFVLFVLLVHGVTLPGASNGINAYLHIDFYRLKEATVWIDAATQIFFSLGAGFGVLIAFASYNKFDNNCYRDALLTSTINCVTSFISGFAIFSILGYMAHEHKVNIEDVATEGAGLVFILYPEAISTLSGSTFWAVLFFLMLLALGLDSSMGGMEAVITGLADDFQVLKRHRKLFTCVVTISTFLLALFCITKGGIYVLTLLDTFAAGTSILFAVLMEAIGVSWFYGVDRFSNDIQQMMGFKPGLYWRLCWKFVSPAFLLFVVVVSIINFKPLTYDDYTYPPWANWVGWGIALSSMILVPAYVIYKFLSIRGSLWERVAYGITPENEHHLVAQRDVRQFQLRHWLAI

T2 sequence (Q61327 whole entry): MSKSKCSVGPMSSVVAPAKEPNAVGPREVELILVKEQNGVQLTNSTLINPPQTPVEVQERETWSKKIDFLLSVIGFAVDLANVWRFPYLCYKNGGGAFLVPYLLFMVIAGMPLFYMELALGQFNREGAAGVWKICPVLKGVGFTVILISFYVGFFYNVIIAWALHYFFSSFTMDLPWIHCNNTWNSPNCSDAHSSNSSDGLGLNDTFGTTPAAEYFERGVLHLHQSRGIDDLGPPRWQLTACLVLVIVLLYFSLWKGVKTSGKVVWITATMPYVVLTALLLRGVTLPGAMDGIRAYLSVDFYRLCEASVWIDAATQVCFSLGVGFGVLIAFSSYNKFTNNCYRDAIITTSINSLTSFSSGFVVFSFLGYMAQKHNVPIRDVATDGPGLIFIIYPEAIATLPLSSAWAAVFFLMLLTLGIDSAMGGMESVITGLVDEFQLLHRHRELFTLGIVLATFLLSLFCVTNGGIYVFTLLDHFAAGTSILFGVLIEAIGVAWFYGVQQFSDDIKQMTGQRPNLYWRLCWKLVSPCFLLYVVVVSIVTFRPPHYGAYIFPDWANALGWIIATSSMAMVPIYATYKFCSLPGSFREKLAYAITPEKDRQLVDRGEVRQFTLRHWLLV
T1 sequence (Q60857 whole entry): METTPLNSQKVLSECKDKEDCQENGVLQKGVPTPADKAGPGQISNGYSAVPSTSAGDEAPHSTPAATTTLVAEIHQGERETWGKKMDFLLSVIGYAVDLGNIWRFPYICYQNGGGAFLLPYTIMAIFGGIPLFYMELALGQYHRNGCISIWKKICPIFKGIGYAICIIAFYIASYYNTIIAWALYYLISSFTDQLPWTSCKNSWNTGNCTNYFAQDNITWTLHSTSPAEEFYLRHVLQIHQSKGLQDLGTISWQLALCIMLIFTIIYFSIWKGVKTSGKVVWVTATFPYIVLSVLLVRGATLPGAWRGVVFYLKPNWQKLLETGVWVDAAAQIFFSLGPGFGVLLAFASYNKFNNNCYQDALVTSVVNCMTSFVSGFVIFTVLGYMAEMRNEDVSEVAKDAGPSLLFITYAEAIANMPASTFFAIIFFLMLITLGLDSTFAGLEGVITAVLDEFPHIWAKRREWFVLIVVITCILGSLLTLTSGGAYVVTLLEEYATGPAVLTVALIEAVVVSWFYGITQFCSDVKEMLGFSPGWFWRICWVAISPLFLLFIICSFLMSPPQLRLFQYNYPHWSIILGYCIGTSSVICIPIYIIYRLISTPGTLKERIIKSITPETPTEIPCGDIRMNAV
human serotonin reuptake transporter, sequence (P31645 whole entry): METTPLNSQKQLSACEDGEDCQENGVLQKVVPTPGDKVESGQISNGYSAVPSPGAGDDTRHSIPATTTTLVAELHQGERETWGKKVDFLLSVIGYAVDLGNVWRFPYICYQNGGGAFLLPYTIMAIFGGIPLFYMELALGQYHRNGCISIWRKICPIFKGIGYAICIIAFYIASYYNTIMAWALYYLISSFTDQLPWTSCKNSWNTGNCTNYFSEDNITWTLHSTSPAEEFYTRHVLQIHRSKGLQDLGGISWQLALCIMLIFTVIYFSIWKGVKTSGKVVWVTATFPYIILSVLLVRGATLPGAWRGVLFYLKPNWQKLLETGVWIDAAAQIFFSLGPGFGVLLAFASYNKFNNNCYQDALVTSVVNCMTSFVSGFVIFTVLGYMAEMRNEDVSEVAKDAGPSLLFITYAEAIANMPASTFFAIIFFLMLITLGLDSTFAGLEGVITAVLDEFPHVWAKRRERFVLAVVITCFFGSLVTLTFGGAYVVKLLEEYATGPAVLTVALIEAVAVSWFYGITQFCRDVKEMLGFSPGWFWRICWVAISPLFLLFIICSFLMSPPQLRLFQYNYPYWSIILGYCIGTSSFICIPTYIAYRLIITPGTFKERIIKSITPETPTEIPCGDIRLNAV

CN(C)CC1(c2ccc3ccccc3c2)CCCCC1O (single isomer, unassigned) [164 E1, trans-2-((dimethylamino)methyl)-2-(naphthalen-2-yl)cyclohexanol]
Mouse Tail Suspension Mean Immobility Time ± S.E.M. (mice [1]; 3 mg/kg): 183.8 ± 6.5
Mouse Tail Suspension Mean Immobility Time ± S.E.M. (mice [1]; 10 mg/kg): 162.1 ± 4.6
Mouse Tail Suspension Mean Immobility Time ± S.E.M. (mice [1]; 30 mg/kg): 155.3 ± 7.8
Mouse Locomotor Activity Total Distance Traveled ± S.E.M. (mice [2]; 3 mg/kg): 377.8 ± 67.6
Mouse Locomotor Activity Total Distance Traveled ± S.E.M. (mice [2]; 10 mg/kg): 210.3 ± 40.4
Mouse Locomotor Activity Total Distance Traveled ± S.E.M. (mice [2]; 30 mg/kg): 494.0 ± 84.9

CN(C)CC1(c2ccc3ccccc3c2)CCCCC1O (single isomer, unassigned) [164 E2, trans-2-((dimethylamino)methyl)-2-(naphthalen-2-yl)cyclohexanol]
Mouse Tail Suspension Mean Immobility Time ± S.E.M. (mice [1]; 3 mg/kg): 181.8 ± 6.3
Mouse Tail Suspension Mean Immobility Time ± S.E.M. (mice [1]; 10 mg/kg): 179.1 ± 4.5
Mouse Tail Suspension Mean Immobility Time ± S.E.M. (mice [1]; 30 mg/kg): 141.8 ± 6.0
Mouse Locomotor Activity Total Distance Traveled ± S.E.M. (mice [2]; 3 mg/kg): 518.2 ± 106.1
Mouse Locomotor Activity Total Distance Traveled ± S.E.M. (mice [2]; 10 mg/kg): 464.5 ± 86.2
Mouse Locomotor Activity Total Distance Traveled ± S.E.M. (mice [2]; 30 mg/kg): 669.9 ± 75.6

CNCC1(c2ccc3ccccc3c2)CCCCC1 [Compound 93, N-methyl-1-(1-(naphthalen-2-yl)cyclohexyl)methanamine]
Rat Forced Swim (Means ± S.E.M.) Climbing (Rats [3]; 3 mg/kg): 9.0 ± 1.3
Rat Forced Swim (Means ± S.E.M.) Immobility (Rats [3]; 3 mg/kg): 44.5 ± 2.5
Rat Forced Swim (Means ± S.E.M.) Swimming (Rats [3]; 3 mg/kg): 6.5 ± 1.6
Rat Forced Swim (Means ± S.E.M.) Climbing (Rats [3]; 10 mg/kg): 12.8 ± 2.2
Rat Forced Swim (Means ± S.E.M.) Immobility (Rats [3]; 10 mg/kg): 41.4 ± 2.8
Rat Forced Swim (Means ± S.E.M.) Swimming (Rats [3]; 10 mg/kg): 6.9 ± 1.3
Rat Forced Swim (Means ± S.E.M.) Climbing (Rats [3]; 30 mg/kg): 22.2 ± 3.5
Rat Forced Swim (Means ± S.E.M.) Immobility (Rats [3]; 30 mg/kg): 25.8 ± 5.4
Rat Forced Swim (Means ± S.E.M.) Swimming (Rats [3]; 30 mg/kg): 12.0 ± 2.1
Mouse Tail Suspension Mean Immobility Time ± S.E.M. (mice [1]; 3 mg/kg): 203.5 ± 8.0
Mouse Tail Suspension Mean Immobility Time ± S.E.M. (mice [1]; 10 mg/kg): 185.4 ± 7.9
Mouse Tail Suspension Mean Immobility Time ± S.E.M. (mice [1]; 30 mg/kg): 162.0 ± 8.1
Mouse Locomotor Activity Total Distance Traveled ± S.E.M. (mice [2]; 3 mg/kg): 644.0 ± 55.7
Mouse Locomotor Activity Total Distance Traveled ± S.E.M. (mice [2]; 10 mg/kg): 606.9 ± 72.4
Mouse Locomotor Activity Total Distance Traveled ± S.E.M. (mice [2]; 30 mg/kg): 737.6 ± 89.5
Rat Locomotor Activity Total Distance Traveled ± S.E.M. (Rats [4]; 3 mg/kg): 1802.6 ± 150.6
Rat Locomotor Activity Total Distance Traveled ± S.E.M. (Rats [4]; 10 mg/kg): 1641.0 ± 144.5
Rat Locomotor Activity Total Distance Traveled ± S.E.M. (Rats [4]; 30 mg/kg): 2095.6 ± 147.2

CNCC1(c2ccc(Cl)c(Cl)c2)CCC(C)(O)CC1 (stereo not drawn) [Compound 276, 4-(3,4-dichlorophenyl)-1-methyl-4-((methylamino)methyl)cyclohexanol]
IC50 [5]: 210 nM
% Transporter Occupancy, SERT ([6]; 1 mg/kg): 12%
Mean Specific Binding (dpm) ± S.E.M., SERT ([6]; 1 mg/kg): 3743 ± 199 dpm
% Transporter Occupancy, SERT ([6]; 3 mg/kg): 14%
Mean Specific Binding (dpm) ± S.E.M., SERT ([6]; 3 mg/kg): 3685 ± 292 dpm
% Transporter Occupancy, SERT ([6]; 10 mg/kg): 28%
Mean Specific Binding (dpm) ± S.E.M., SERT ([6]; 10 mg/kg): 3092 ± 207 dpm
% Transporter Occupancy, SERT ([6]; 30 mg/kg): 64%
Mean Specific Binding (dpm) ± S.E.M., SERT ([6]; 30 mg/kg): 1558 ± 169 dpm
% Transporter Occupancy, DAT ([7]; 1 mg/kg): -21%
% Transporter Occupancy, DAT ([7]; 3 mg/kg): -9%
Mean Specific Binding (dpm) ± S.E.M., DAT ([7]; 3 mg/kg): 16312 ± 2396 dpm
% Transporter Occupancy, DAT ([7]; 10 mg/kg): -6%
Mean Specific Binding (dpm) ± S.E.M., DAT ([7]; 10 mg/kg): 15879 ± 2265 dpm
% Transporter Occupancy, DAT ([7]; 30 mg/kg): 31%
Mean Specific Binding (dpm) ± S.E.M., DAT ([7]; 30 mg/kg): 10397 ± 931 dpm
Mouse Locomotor Activity Total Distance Traveled ± S.E.M. (mice [2]; 3 mg/kg): 625.9 ± 47.5
Mouse Locomotor Activity Total Distance Traveled ± S.E.M. (mice [2]; 10 mg/kg): 382.4 ± 63.4
Mouse Locomotor Activity Total Distance Traveled ± S.E.M. (mice [2]; 30 mg/kg): 607.8 ± 57.8
% Transporter Occupancy, NET ([8]; 1 mg/kg): -4%
Mean Specific Binding (dpm) ± S.E.M., NET ([8]; 1 mg/kg): 1602 ± 51 dpm
% Transporter Occupancy, NET ([8]; 3 mg/kg): -6%
Mean Specific Binding (dpm) ± S.E.M., NET ([8]; 3 mg/kg): 1631 ± 92 dpm
% Transporter Occupancy, NET ([8]; 10 mg/kg): -1%
Mean Specific Binding (dpm) ± S.E.M., NET ([8]; 10 mg/kg): 1553 ± 27 dpm
% Transporter Occupancy, NET ([8]; 30 mg/kg): 26%
Mean Specific Binding (dpm) ± S.E.M., NET ([8]; 30 mg/kg): 1138 ± 59 dpm
